The values that follow come from US10959986B2, “Inhibitors of indoleamine 2,3-dioxygenase and methods of their use” (BRISTOL-MYERS SQUIBB COMPANY, priority 2018, dated 2021).

What is called IC50 is the concentration needed to halve the response being measured.

The target in experiment [1] is T1, human IDO1 (Homo sapiens, UniProt P14902).
T1 construct: expressed in transfected cells
Nature of the experiment: HEK293 cell-based indoleamine 2,3-dioxygenase (IDO) assay. The following applies: HEK293 cells stably expressing human IDO1, 20 hours incubation; read-out: IDO1 HEK Human IC50. On the procedure: Assessment of Inhibitor Activity in HEK293 Cell-Based Indoleamine 2,3-Dioxygenase (IDO) Assay.
HEK293 cells were transfected with a pCDNA-based mammalian expression vector harboring human IDO1 cDNA (NM 002164.2) by electroporation. They were cultured in medium (DMEM with 10% FBS) containing 1 mg/ml G418 for two weeks. Clones of HEK293 cells that stably expressed human IDO1 protein were selected and expanded for IDO inhibition assay.
The human IDO1/HEK293 cells were seeded at 10,000 cells per 50 μL per well with RPMI/phenol red free media contains 10% FBS in a 384-well black wall clear bottom tissue culture plate (Matrix Technologies LLC) 100 nL of certain concentration of compound was then added to each well using ECHO liquid handling systems. The cells were incubated for 20 hours in 37° C. incubator with 5% CO2.
The compound treatments were stopped by adding trichloroacetic acid (Sigma-Aldrich) to a final concentration at 0.2%. The cell plate was further incubated at 50° C. for 30 minute. The equal volume supernatant (20 μL) and 0.2% (w/v) Ehrlich reagent (4-dimethylaminobenzaldehyde, Sigma-Aldrich) in glacial acetic acid were mixed in a new clear bottom 384-well plate. This plate was then incubated at room temperature for 30 minute. The absorbance at 490 nm was measured on Envision plate reader.
Compound IC50 values were calculated using the counts of 500 nM of a reference standard treatment as one hundred percent inhibition, and counts of no compound but DMSO treatment as zero percent inhibition.

Experiment [2] concerns the target T2, indoleamine 2,3-dioxygenase (IDO) (Homo sapiens, UniProt P14902).
T2 construct: media containing IFNγ (#285-IF/CF, R&D Systems) at a final concentration of 25 ng/mL; endogenous in cells; host or cells: HeLa (ATCC CCL-2), induced with IFN-gamma
Nature of the experiment: HeLa cell-based indoleamine 2,3-dioxygenase (IDO) assay. The following applies: HeLa cells with IFNγ 25 ng/mL, 48 hour incubation, kynurenine production; read-out: IDO Hela IC50 potency class (A < 50, B < 250, C < 2000). On the procedure: Assessment of Inhibitor Activity in HeLa Cell-Based Indoleamine 2,3-Dioxygenase (IDO) Assay.
HeLa (ATCCR CCL-2) cells were obtained from the ATCC® and cultured in Dulbecco's Modified Eagle Medium supplemented with 4.5 g/L glucose, […] L-glutamine and […] (#10-013-CV, Corning), 2 mM L-alanyl-L-glutamine dipeptide (#35050-061, Gibco), 100U/mL penicillin, 100 µg/mL streptomycin (#SV30010, HyClone) and 10% fetal bovine serum (#SH30071.03 HyClone). Cells were maintained in a humidified incubator at 37° C. in 5% CO2.
IDO activity was assessed as a function of kynurenine production as follows: HeLa cells were seeded in a 96-well culture plate at a density of 5,000 cells/well and allowed to equilibrate overnight. After 24 hours, the media was aspirated and replaced with media containing IFNγ (#285-IF/CF, R&D Systems) at a final concentration of 25 ng/mL. A serial dilution of each test compound was added to the cells in a total volume of 200 μL of culture medium. After a further 48 hour incubation, 170 μL of supernatant was transferred from each well to a fresh 96-well plate. 12.1 μL of 6. IN trichloroacetic acid (#T0699, Sigma-Aldrich) was added to each well and mixed, followed by incubation at 65° C. for 20 minutes to hydrolyze N-formylkynurenine, the product of indoleamine 2,3-dioxygenase, to kynurenine. The reaction mixture was then centrifuged for 10 mins at 500×g to sediment the precipitate. 100 μL of the supernatant was transferred from each well to a fresh 96-well plate. 100 μl of 2% (w/v) p-dimethylaminobenzaldehyde (#15647-7, Sigma-Aldrich) in acetic acid (#A6283, Sigma-Aldrich) was added to each well mixed and incubated at room temperature for 20 mins. Kynurenine concentrations were determined by measuring absorbance at 480 nm and calibrating against an L-kynurenine (#K8625, Sigma-Aldrich) standard curve using a SPECTRAMAX® M2e microplate reader (Molecular Devices). The percentage activity at each inhibitor concentration was determined and IC50 values assessed using nonlinear regression.

T1 sequence (P14902 whole entry): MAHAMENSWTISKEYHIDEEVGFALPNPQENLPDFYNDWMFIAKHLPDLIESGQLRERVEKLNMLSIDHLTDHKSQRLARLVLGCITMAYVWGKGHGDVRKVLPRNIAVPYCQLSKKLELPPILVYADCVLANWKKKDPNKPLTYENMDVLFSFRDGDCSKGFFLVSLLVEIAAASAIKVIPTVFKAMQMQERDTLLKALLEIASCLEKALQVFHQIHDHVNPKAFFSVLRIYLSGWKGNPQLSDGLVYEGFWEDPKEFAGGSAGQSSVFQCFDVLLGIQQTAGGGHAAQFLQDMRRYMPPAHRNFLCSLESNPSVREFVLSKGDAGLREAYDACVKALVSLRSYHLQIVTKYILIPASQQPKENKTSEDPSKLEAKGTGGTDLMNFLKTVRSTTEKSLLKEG
T2 sequence (P14902 whole entry): as above

In the case of `CC[C@@H](CC(=O)O)c1ccc([C@H]2CC[C@@H](c3ccccc3)CC2)c(NC(=O)Nc2ccc(C)cc2)c1` (single isomer, unassigned) [Example 1-1, 3-(4-(4-phenylcyclohexyl)-3-(3-(p-tolyl)ureido)phenyl)pentanoic acid], the IC50 in experiment [1] amounted to 0.499 µM.

As to `CC[C@@H](CC(=O)O)c1ccc([C@H]2CC[C@@H](c3ccccc3)CC2)c(NC(=O)Nc2ccc(C)cc2)c1` (single isomer, unassigned) [Example 1-2, 3-(4-(4-phenylcyclohexyl)-3-(3-(p-tolyl)ureido)phenyl)pentanoic acid], in experiment [1], the IC50 worked out at 1.6 µM.

Take `CC[C@@H](CC(=O)O)c1ccc([C@H]2CC[C@@H](c3ccccc3)CC2)c(NC(=O)Nc2ccc(C)cc2)c1` (single isomer, unassigned) [Example 1-4, 3-(4-(4-phenylcyclohexyl)-3-(3-(p-tolyl)ureido)phenyl)pentanoic acid]: the IC50 in experiment [2] is below 0.05 µM; in experiment [1], 0.003 µM.

On to `CC[C@@H](CC(=O)O)c1ccc([C@H]2CC[C@@H](c3ccccc3)CC2)c(NC(=O)Nc2ccc(C)cc2)c1` (single isomer, unassigned) [Example 2-3, 3-(4-(4-phenylcyclohexyl)-3-(3-(p-tolyl)ureido)phenyl)pentanoic acid], for which the IC50 is below 0.05 µM in experiment [2] and 0.001 µM in experiment [1].
